# What was measured:
# [1] = target: T1, cloned human mu opioid receptor (Homo sapiens, UniProt P35372); assay: GTP-γ-S binding assay, antagonist mode (mu); format: biochemical; conditions: functional antagonist potency vs DAMGO 1 micromolar; membranes, [35S]GTP-γ-S SPA; Cheng-Prusoff
# T1 construct: expressed in transfected cells
# Experimental: (§1) The functional antagonist potency (Kb) of the sample compounds was determined using the GTPγS binding assay. GTPgS-based functional assays provide an in vitro measure of the activity of opioid agonists and antagonists. Opioid reference compounds or test compound are incubated with membrane homogenate from cells expressing the cloned human mu, kappa or delta opioid receptor and radiolabeled [35S]GTPgS. If the compound activates the opioid receptor, an increase in the binding of radiolabeled GTPgS is observed. […] These tests provide an in vitro measurement of the activity of the compound at human opioid receptors.
# (§2) An SPA-based GTP-γ-S assay format was developed based on previous opioid (Emmerson et al., J. Pharm Exp Ther 278, 1121, 1996; Horng et al., Society for Neuroscience Abstracts, 434.6, 2000) and muscarinic (DeLapp et al., JPET 289, 946, 1999) assay formats. Membranes were resuspended in 20 mM HEPES, 100 mM NaCl, 5 mM MgCl2, 1 mM DTT, and 1 mM EDTA. Fifty (50) […] of GTP-γ-[35S], compound, membrane suspension (20 microgram/well), and wheat germ agglutinin coated SPA beads (1 mg/well) were added to clear bottom 96 well assay plates. GDP ([…]) was added to the membrane solution prior to addition to the assay plates. Plates were sealed and incubated for four hours at room temperature then placed in a refrigerator overnight to allow the beads to settle. Signal stability at 4° C. was determined to be >60 hours. Plates were warmed to room temperature and counted in a Wallac Microbeta scintillation counter. For antagonist assays, specific agonists were added at the following concentrations: (MOR) DAMGO 1 micromolar, (DOR) DPDPE 30 nM, (KOR) U69593 300 nM. Kb's were determined by Cheng-Prusoff equation (see Cheng and Prusoff, Biochem. Pharmacol. 22, 3099, 1973).
# [2] = target: T2, cloned human delta opioid receptor (Homo sapiens, UniProt P41143); assay: GTP-γ-S binding assay, antagonist mode (delta); format: biochemical; conditions: functional antagonist potency vs DPDPE 30 nM; membranes, [35S]GTP-γ-S SPA; Cheng-Prusoff
# T2 construct: expressed in transfected cells
# Experimental: as §1, §2
# T1 sequence (P35372 whole entry): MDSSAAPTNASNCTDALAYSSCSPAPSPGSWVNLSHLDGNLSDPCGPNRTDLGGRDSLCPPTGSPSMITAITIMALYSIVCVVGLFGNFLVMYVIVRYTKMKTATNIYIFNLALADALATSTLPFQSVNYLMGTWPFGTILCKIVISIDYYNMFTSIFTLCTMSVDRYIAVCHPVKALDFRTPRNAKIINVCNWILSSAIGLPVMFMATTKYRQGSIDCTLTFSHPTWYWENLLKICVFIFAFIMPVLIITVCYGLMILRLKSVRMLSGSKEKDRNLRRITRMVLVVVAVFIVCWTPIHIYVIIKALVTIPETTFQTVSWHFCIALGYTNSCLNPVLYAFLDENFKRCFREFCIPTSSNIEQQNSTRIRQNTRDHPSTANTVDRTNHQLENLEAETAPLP
# T2 sequence (P41143 whole entry): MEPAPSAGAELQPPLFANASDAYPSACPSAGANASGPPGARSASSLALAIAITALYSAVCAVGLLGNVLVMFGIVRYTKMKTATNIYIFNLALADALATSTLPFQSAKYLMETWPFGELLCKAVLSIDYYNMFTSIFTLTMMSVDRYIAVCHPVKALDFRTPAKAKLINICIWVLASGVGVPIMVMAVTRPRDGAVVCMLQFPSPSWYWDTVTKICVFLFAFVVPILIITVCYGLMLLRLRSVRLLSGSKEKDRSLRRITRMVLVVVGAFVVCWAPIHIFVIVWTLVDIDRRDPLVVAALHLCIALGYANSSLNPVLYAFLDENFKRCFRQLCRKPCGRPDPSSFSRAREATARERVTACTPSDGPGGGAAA
Kb [1] [nM],Kb [2] [nM],Structure (SMILES)
> 21,> 41,"CC(C)CCNCc1ccc(OCc2cccc(C(N)=O)c2)cc1 [Example 1, 3-{4-[(3-Methyl-butylamino)-methyl]-phenoxymethyl}-benzamide]"
62.9,337,"CC(C)CCNCc1ccc(OCc2ccc(C(N)=O)cc2)cc1 [Example 2, 4-{4-[(3-Methyl-butylamino)-methyl]-phenoxymethyl}-benzamide]"
> 23,> 67,"CC(C)CCNCc1ccc(COc2ccc(C(N)=O)cc2)cc1 [Example 4, 4-{4-[(3-Methyl-butylamino)-methyl]-benzyloxy}-benzamide]"
> 23,> 67,"CC(C)CCNCc1ccc(OCCc2ccc(C(N)=O)cc2)cc1 [Example 5, 4-(2-{4-[(3-Methyl-butylamino)-methyl]-phenoxy}-ethyl)-benzamide]"

# Reference: patent publication US7381750B2, “Amino-phenoxymethyl-benzamide opioid receptor antagonists” (Eli Lilly and Company, priority 2004, dated 2008)
